What was measured:
lung tissue sections = test: Histopathological analysis of lung (H&E, PAS) in asthma mice; type: in vivo, mouse; details: OVA asthma Balb/c mice, 5 or 15 mg/kg PO
Procedure: 6 week old Balb/c female mice in the average weight of 20 g were adapted for 1 week. 2 mg of aluminum hydroxide (A8222, Sigma, St. Louis, Mo.) and 20 μg of ovalbumin (A5503, sigma, St. Louis, Mo.) were suspended in phosphate buffer (pH 7.4). Each mouse was administered with 200 μl of the phosphate buffer suspension via intraperitoneal injection for sensitization at 2 weeks intervals. The mouse was forced to inhale 1% ovalbumin (OVA) through ultrasonic atomizer for 30 minutes a day for 3 days after the first intraperitoneal injection of ovalbumin. 24 hours after the antigen administration, airway hyperreactivity was measured. 48 hours later, a lethal dose of pentobarbital (Entobar, Hanlim Pharma. Co., Ltd.) was administered to the mouse. The bronchus was opened and the alveoli were washed with 1.4 ml of saline. Then, the test samples were obtained. The normal control (NC) was not administered with ovalbumin nor inhaled. The asthma induced group (OVA) was administered with ovalbumin and inhaled to induce bronchial asthma. […]
To evaluate the level of mucus production by investigating the increase of the number of goblet cells, the mucus secretion cells, the lung was extracted from the mouse without bronchoalveolar lavage. […] The proliferation of goblet cells was evaluated by measuring the ratio of the goblet cells selected by the staining above in bronchial epithelial cells.

[1] = Toxicity test, single oral administration: toxicological changes in abdomen, chest and major organs (autopsy); type: in vivo; details: for Clinical sign: Abdominal cavity (toxicological changes, animals affected/total) / Clinical sign: Major organs (toxicological changes, animals affected/total) / Clinical sign: Thoracic cavity (toxicological changes, animals affected/total) / Mortality (animals dead/total) / Clinical sign: Abdominal cavity (toxicological changes), Total / Clinical sign: Major organs (toxicological changes), Total / Clinical sign: Thoracic cavity (toxicological changes), Total / Mortality, Total: single oral administration, mouse
From the text: 1. Test Material and Control Material • Test material: compound of Example 4 • Storage condition: frozen storage • Control material: 10% DMSO+10% Tween 20 in PBS
2. Test System • Animal: female Balb/c • Animal provider: Koatech • Age and weight of animal • Age at the time of arrival: 5 week • Number at the time of arrival: 28 • Age at the start of administration: 6 week • Number at the start of administration: 28 ? • Weight at the start of administration: 16.1˜16.5 g
3. Administration Method and Preparation of Test Material • Administration method: single oral administration • Preparation of test material: Test materials were prepared by using 10% DMSO+10% Tween-20 in PBS as a solvent for each dose. The preparation was carried out immediately before the administration
On the 10th day after the administration, all the surviving animals were anesthetized with CO2 gas. Laparotomy was performed and the animals were sacrificed by venesection from the abdominal aorta. Then, all the internal organs of the animal were observed by the naked eye.
The compound of Example 4 was orally administered once to female Balb/c mouse at the doses of 250, 500, and 1000 mg/kg in order to obtain the information on acute toxicity of the compound of Example 4, followed by investigation of death rate, general symptoms, and weight changes for 10 days by autopsy.
After the administration of the compound of Example 4, the mice were autopsied on the last day, and the toxicological changes in the abdomen, chest and major organs were observed.

SMILES: COc1cc(CCCO)cc2cc(-c3ccc(C)cc3)oc12 [Example 4, 3-(7-methoxy-2-p-tolylbenzofuran-5-yl)propane-1-ol]
- accumulation of inflammatory cells around bronchiole (H&E) (lung tissue sections; FIG. 6): significantly reduced
- proliferation of goblet cells (PAS, mucus production) (lung tissue sections; FIG. 7): significantly reduced
- Clinical sign: Abdominal cavity (toxicological changes, animals affected/total) ([1]; 250 mg/kg, Day 1): 0/7
- Clinical sign: Major organs (toxicological changes, animals affected/total) ([1]; 250 mg/kg, Day 1): 0/7
- Clinical sign: Thoracic cavity (toxicological changes, animals affected/total) ([1]; 250 mg/kg, Day 1): 0/7
- Mortality (animals dead/total) ([1]; 250 mg/kg, Day 1): 0/7
- Clinical sign: Abdominal cavity (toxicological changes, animals affected/total) ([1]; 250 mg/kg, Day 7): 0/7
- Clinical sign: Major organs (toxicological changes, animals affected/total) ([1]; 250 mg/kg, Day 7): 0/7
- Clinical sign: Thoracic cavity (toxicological changes, animals affected/total) ([1]; 250 mg/kg, Day 7): 0/7
- Mortality (animals dead/total) ([1]; 250 mg/kg, Day 7): 0/7
- Clinical sign: Abdominal cavity (toxicological changes, animals affected/total) ([1]; 250 mg/kg, Day 8): 0/7
- Clinical sign: Major organs (toxicological changes, animals affected/total) ([1]; 250 mg/kg, Day 8): 0/7
- Clinical sign: Thoracic cavity (toxicological changes, animals affected/total) ([1]; 250 mg/kg, Day 8): 0/7
- Mortality (animals dead/total) ([1]; 250 mg/kg, Day 8): 0/7
- Clinical sign: Abdominal cavity (toxicological changes, animals affected/total) ([1]; 250 mg/kg, Day 9): 0/7
- Clinical sign: Major organs (toxicological changes, animals affected/total) ([1]; 250 mg/kg, Day 9): 0/7
- Clinical sign: Thoracic cavity (toxicological changes, animals affected/total) ([1]; 250 mg/kg, Day 9): 0/7
- Mortality (animals dead/total) ([1]; 250 mg/kg, Day 9): 0/7
- Clinical sign: Abdominal cavity (toxicological changes, animals affected/total) ([1]; 250 mg/kg, Day 10): 0/7
- Clinical sign: Major organs (toxicological changes, animals affected/total) ([1]; 250 mg/kg, Day 10): 0/7
- Clinical sign: Thoracic cavity (toxicological changes, animals affected/total) ([1]; 250 mg/kg, Day 10): 0/7
- Mortality (animals dead/total) ([1]; 250 mg/kg, Day 10): 0/7
- Clinical sign: Abdominal cavity (toxicological changes), Total ([1]; 250 mg/kg): 0
- Clinical sign: Major organs (toxicological changes), Total ([1]; 250 mg/kg): 0
- Clinical sign: Thoracic cavity (toxicological changes), Total ([1]; 250 mg/kg): 0
- Mortality, Total ([1]; 250 mg/kg): 0
- Clinical sign: Abdominal cavity (toxicological changes, animals affected/total) ([1]; 500 mg/kg, Day 1): 0/7
- Clinical sign: Major organs (toxicological changes, animals affected/total) ([1]; 500 mg/kg, Day 1): 0/7
- Clinical sign: Thoracic cavity (toxicological changes, animals affected/total) ([1]; 500 mg/kg, Day 1): 0/7
- Mortality (animals dead/total) ([1]; 500 mg/kg, Day 1): 0/7
- Clinical sign: Abdominal cavity (toxicological changes, animals affected/total) ([1]; 500 mg/kg, Day 7): 0/7
- Clinical sign: Major organs (toxicological changes, animals affected/total) ([1]; 500 mg/kg, Day 7): 0/7
- Clinical sign: Thoracic cavity (toxicological changes, animals affected/total) ([1]; 500 mg/kg, Day 7): 0/7
- Mortality (animals dead/total) ([1]; 500 mg/kg, Day 7): 0/7
- Clinical sign: Abdominal cavity (toxicological changes, animals affected/total) ([1]; 500 mg/kg, Day 8): 0/7
- Clinical sign: Major organs (toxicological changes, animals affected/total) ([1]; 500 mg/kg, Day 8): 0/7
- Clinical sign: Thoracic cavity (toxicological changes, animals affected/total) ([1]; 500 mg/kg, Day 8): 0/7
- Mortality (animals dead/total) ([1]; 500 mg/kg, Day 8): 0/7
- Clinical sign: Abdominal cavity (toxicological changes, animals affected/total) ([1]; 500 mg/kg, Day 9): 0/7
- Clinical sign: Major organs (toxicological changes, animals affected/total) ([1]; 500 mg/kg, Day 9): 0/7
- Clinical sign: Thoracic cavity (toxicological changes, animals affected/total) ([1]; 500 mg/kg, Day 9): 0/7
- Mortality (animals dead/total) ([1]; 500 mg/kg, Day 9): 0/7
- Clinical sign: Abdominal cavity (toxicological changes, animals affected/total) ([1]; 500 mg/kg, Day 10): 0/7
- Clinical sign: Major organs (toxicological changes, animals affected/total) ([1]; 500 mg/kg, Day 10): 0/7
- Clinical sign: Thoracic cavity (toxicological changes, animals affected/total) ([1]; 500 mg/kg, Day 10): 0/7
- Mortality (animals dead/total) ([1]; 500 mg/kg, Day 10): 0/7
- Clinical sign: Abdominal cavity (toxicological changes), Total ([1]; 500 mg/kg): 0
- Clinical sign: Major organs (toxicological changes), Total ([1]; 500 mg/kg): 0
- Clinical sign: Thoracic cavity (toxicological changes), Total ([1]; 500 mg/kg): 0
- Mortality, Total ([1]; 500 mg/kg): 0
- Clinical sign: Abdominal cavity (toxicological changes, animals affected/total) ([1]; 1000 mg/kg, Day 1): 0/7
- Clinical sign: Major organs (toxicological changes, animals affected/total) ([1]; 1000 mg/kg, Day 1): 0/7
- Clinical sign: Thoracic cavity (toxicological changes, animals affected/total) ([1]; 1000 mg/kg, Day 1): 0/7
- Mortality (animals dead/total) ([1]; 1000 mg/kg, Day 1): 0/7
- Clinical sign: Abdominal cavity (toxicological changes, animals affected/total) ([1]; 1000 mg/kg, Day 7): 0/7
- Clinical sign: Major organs (toxicological changes, animals affected/total) ([1]; 1000 mg/kg, Day 7): 0/7
- Clinical sign: Thoracic cavity (toxicological changes, animals affected/total) ([1]; 1000 mg/kg, Day 7): 0/7
- Mortality (animals dead/total) ([1]; 1000 mg/kg, Day 7): 0/7
- Clinical sign: Abdominal cavity (toxicological changes, animals affected/total) ([1]; 1000 mg/kg, Day 8): 0/7
- Clinical sign: Major organs (toxicological changes, animals affected/total) ([1]; 1000 mg/kg, Day 8): 0/7
- Clinical sign: Thoracic cavity (toxicological changes, animals affected/total) ([1]; 1000 mg/kg, Day 8): 0/7
- Mortality (animals dead/total) ([1]; 1000 mg/kg, Day 8): 0/7
- Clinical sign: Abdominal cavity (toxicological changes, animals affected/total) ([1]; 1000 mg/kg, Day 9): 0/7
- Clinical sign: Major organs (toxicological changes, animals affected/total) ([1]; 1000 mg/kg, Day 9): 0/7
- Clinical sign: Thoracic cavity (toxicological changes, animals affected/total) ([1]; 1000 mg/kg, Day 9): 0/7
- Mortality (animals dead/total) ([1]; 1000 mg/kg, Day 9): 0/7
- Clinical sign: Abdominal cavity (toxicological changes, animals affected/total) ([1]; 1000 mg/kg, Day 10): 0/7
- Clinical sign: Major organs (toxicological changes, animals affected/total) ([1]; 1000 mg/kg, Day 10): 0/7
- Clinical sign: Thoracic cavity (toxicological changes, animals affected/total) ([1]; 1000 mg/kg, Day 10): 0/7
- Mortality (animals dead/total) ([1]; 1000 mg/kg, Day 10): 0/7
- Clinical sign: Abdominal cavity (toxicological changes), Total ([1]; 1000 mg/kg): 0
- Clinical sign: Major organs (toxicological changes), Total ([1]; 1000 mg/kg): 0
- Clinical sign: Thoracic cavity (toxicological changes), Total ([1]; 1000 mg/kg): 0
- Mortality, Total ([1]; 1000 mg/kg): 0
- toxicological changes (abdomen, chest and major organs) ([1]; 250, 500, 1000 mg/kg single oral, autopsy on last day): not observed
